Measurements from ChEMBL document CHEMBL1649294, “Susceptibilities of 23 Desulfovibrio isolates from humans” (2009).
In brackets after ≈: the same amount, converted by molar mass.

Columns and labels:
Type in all cases: functional
[1] = test system: Desulfovibrio fairfieldensis; experiment: Antimicrobial activity against Desulfovibrio fairfieldensis in presence of Sulbactam by Etest method
Desulfovibrio sp. [2] = experiment: Antimicrobial activity against Desulfovibrio sp. in presence of Sulbactam by Etest method
Desulfovibrio sp. [3] = experiment: Antimicrobial activity against Desulfovibrio sp. by Etest method
[4] = test system: Desulfovibrio fairfieldensis; experiment: Antimicrobial activity against Desulfovibrio fairfieldensis by Etest method
[5] = test system: Desulfovibrio desulfuricans; experiment: Antimicrobial activity against Desulfovibrio desulfuricans Essex 6 by Etest method
[6] = test system: Desulfovibrio desulfuricans; experiment: Antimicrobial activity against Desulfovibrio desulfuricans MB by Etest method
Desulfovibrio piger [7] = experiment: Antimicrobial activity against Desulfovibrio piger by Etest method
[8] = test system: Desulfovibrio desulfuricans; experiment: Antimicrobial activity against Desulfovibrio desulfuricans Essex 6 in presence of Sulbactam by Etest method
[9] = test system: Desulfovibrio desulfuricans; experiment: Antimicrobial activity against Desulfovibrio desulfuricans MB in presence of Sulbactam by Etest method
Desulfovibrio piger [10] = experiment: Antimicrobial activity against Desulfovibrio piger in presence of Sulbactam by Etest method
Desulfovibrio sp. [11] = experiment: Antimicrobial activity against Desulfovibrio sp. in presence of Tazobactam by Etest method
[12] = test system: Desulfovibrio fairfieldensis; experiment: Antimicrobial activity against Desulfovibrio fairfieldensis in presence of Tazobactam by Etest method
[13] = test system: Desulfovibrio desulfuricans; experiment: Antimicrobial activity against Desulfovibrio desulfuricans Essex 6 in presence of Tazobactam by Etest method
[14] = test system: Desulfovibrio desulfuricans; experiment: Antimicrobial activity against Desulfovibrio desulfuricans MB in presence of Tazobactam by Etest method
Desulfovibrio piger [15] = experiment: Antimicrobial activity against Desulfovibrio piger in presence of Tazobactam by Etest method

Compound: CC1(C)S[C@@H]2[C@H](NC(=O)[C@H](N)c3ccccc3)C(=O)N2[C@H]1C(=O)O [AMPICILLIN]
- MIC [1]: 4 µg/mL
- MIC (Desulfovibrio sp. [2]): 0.06 µg/mL
- MIC50 (Desulfovibrio sp. [2]): 0.38 µg/mL
- MIC90 (Desulfovibrio sp. [2]): 6 µg/mL
- MIC50 (Desulfovibrio sp. [3]): 0.75 µg/mL (≈ 2.15 µM)
- MIC90 (Desulfovibrio sp. [3]): 8 µg/mL (≈ 22.9 µM)
- MIC [4]: 4 µg/mL (≈ 11.4 µM)
- MIC [5]: 0.19 µg/mL (≈ 0.544 µM)
- MIC [6]: 0.19 µg/mL (≈ 0.544 µM)
- MIC (Desulfovibrio piger [7]): 12 µg/mL (≈ 34.3 µM)
- MIC [8]: 0.125 µg/mL
- MIC [9]: 0.064 µg/mL
- MIC (Desulfovibrio piger [10]): 0.5 µg/mL

Compound: CCN1CCN(C(=O)N[C@@H](C(=O)N[C@@H]2C(=O)N3C(C(=O)O)=C(CSc4nnnn4C)CS[C@H]23)c2ccc(O)cc2)C(=O)C1=O [CEFOPERAZONE]
- MIC [1]: > 24 µg/mL
- MIC50 (Desulfovibrio sp. [2]): 4 µg/mL
- MIC90 (Desulfovibrio sp. [2]): > 256 µg/mL
- MIC50 (Desulfovibrio sp. [3]): > 256 µg/mL
- MIC90 (Desulfovibrio sp. [3]): > 256 µg/mL
- MIC [4]: > 256 µg/mL
- MIC [5]: > 16 µg/mL
- MIC [6]: 12 µg/mL (≈ 18.6 µM)
- MIC (Desulfovibrio piger [7]): 12 µg/mL (≈ 18.6 µM)
- MIC [8]: > 3 µg/mL
- MIC [9]: 1 µg/mL
- MIC (Desulfovibrio piger [10]): 1 µg/mL

Compound: CO/N=C(\C(=O)N[C@@H]1C(=O)N2C(C(=O)O)=C(COC(C)=O)CS[C@H]12)c1csc(N)n1 [CEFOTAXIME]
- MIC50 (Desulfovibrio sp. [3]): 1.5 µg/mL (≈ 3.29 µM)
- MIC90 (Desulfovibrio sp. [3]): > 256 µg/mL
- MIC [4]: > 0.047 µg/mL
- MIC [5]: 0.047 µg/mL (≈ 0.103 µM)
- MIC [6]: 0.5 µg/mL (≈ 1.1 µM)
- MIC (Desulfovibrio piger [7]): 1 µg/mL (≈ 2.2 µM)

Compound: CO[C@@]1(NC(=O)Cc2cccs2)C(=O)N2C(C(=O)O)=C(COC(N)=O)CS[C@@H]21 [CEFOXITIN]
- MIC50 (Desulfovibrio sp. [3]): > 256 µg/mL
- MIC90 (Desulfovibrio sp. [3]): > 256 µg/mL
- MIC [4]: > 64 µg/mL
- MIC [5]: > 256 µg/mL
- MIC [6]: > 16 µg/mL
- MIC (Desulfovibrio piger [7]): 16 µg/mL (≈ 37.4 µM)

Compound: CO/N=C(\C(=O)N[C@@H]1C(=O)N2C(C(=O)[O-])=C(C[n+]3cccc4c3CCC4)CS[C@H]12)c1csc(N)n1 [CEFPIROME]
- MIC50 (Desulfovibrio sp. [3]): 4 µg/mL (≈ 7.77 µM)
- MIC90 (Desulfovibrio sp. [3]): > 256 µg/mL
- MIC [4]: > 256 µg/mL
- MIC [5]: 0.5 µg/mL (≈ 0.972 µM)
- MIC [6]: 0.5 µg/mL (≈ 0.972 µM)
- MIC (Desulfovibrio piger [7]): 0.75 µg/mL (≈ 1.46 µM)

Compound: CC(C)(O/N=C(\C(=O)N[C@@H]1C(=O)N2C(C(=O)[O-])=C(C[n+]3ccccc3)CS[C@H]12)c1csc(N)n1)C(=O)O [CEFTAZIDIME]
- MIC50 (Desulfovibrio sp. [3]): 6 µg/mL (≈ 11 µM)
- MIC90 (Desulfovibrio sp. [3]): > 256 µg/mL
- MIC [4]: > 256 µg/mL
- MIC [5]: > 3 µg/mL
- MIC [6]: 2 µg/mL (≈ 3.66 µM)
- MIC (Desulfovibrio piger [7]): 3 µg/mL (≈ 5.49 µM)

Compound: CC(=O)OCC1=C(C(=O)O)N2C(=O)[C@@H](NC(=O)Cc3cccs3)[C@H]2SC1 [CEPHALOTHIN]
- MIC50 (Desulfovibrio sp. [3]): > 256 µg/mL
- MIC90 (Desulfovibrio sp. [3]): > 256 µg/mL
- MIC [4]: > 256 µg/mL
- MIC [5]: > 3 µg/mL
- MIC [6]: 2 µg/mL (≈ 5.04 µM)
- MIC (Desulfovibrio piger [7]): > 96 µg/mL

Compound: O=C(N[C@H](CO)[C@H](O)c1ccc([N+](=O)[O-])cc1)C(Cl)Cl [CHLORAMPHENICOL]
- MIC (Desulfovibrio sp. [3]): 1.5 µg/mL (≈ 4.64 µM)
- MIC50 (Desulfovibrio sp. [3]): 4 µg/mL (≈ 12.4 µM)
- MIC90 (Desulfovibrio sp. [3]): 8 µg/mL (≈ 24.8 µM)
- MIC [4]: 3 µg/mL (≈ 9.28 µM)
- MIC [5]: 1.5 µg/mL (≈ 4.64 µM)
- MIC [6]: 1.5 µg/mL (≈ 4.64 µM)
- MIC (Desulfovibrio piger [7]): 1.5 µg/mL (≈ 4.64 µM)

Compound: O=C(O)c1cn(C2CC2)c2cc(N3CCNCC3)c(F)cc2c1=O [CIPROFLOXACIN]
- MIC50 (Desulfovibrio sp. [3]): 0.5 µg/mL (≈ 1.51 µM)
- MIC90 (Desulfovibrio sp. [3]): > 32 µg/mL
- MIC [4]: > 32 µg/mL
- MIC [5]: 0.19 µg/mL (≈ 0.573 µM)
- MIC [6]: 0.125 µg/mL (≈ 0.377 µM)
- MIC (Desulfovibrio piger [7]): 0.125 µg/mL (≈ 0.377 µM)

Compound: CCC[C@@H]1C[C@@H](C(=O)N[C@@H]([C@H]2O[C@H](SC)[C@H](O)[C@@H](O)[C@H]2O)[C@H](C)Cl)N(C)C1 [CLINDAMYCIN]
- MIC50 (Desulfovibrio sp. [3]): 0.125 µg/mL (≈ 0.294 µM)
- MIC90 (Desulfovibrio sp. [3]): 0.19 µg/mL (≈ 0.447 µM)
- MIC [4]: 0.032 µg/mL (≈ 0.0753 µM)
- MIC [5]: 0.094 µg/mL (≈ 0.221 µM)
- MIC [6]: 0.094 µg/mL (≈ 0.221 µM)
- MIC (Desulfovibrio piger [7]): 0.016 µg/mL (≈ 0.0376 µM)

Compound: CC[C@H]1OC(=O)[C@H](C)[C@@H](O[C@H]2C[C@@](C)(OC)[C@@H](O)[C@H](C)O2)[C@H](C)[C@@H](O[C@@H]2O[C@H](C)C[C@H](N(C)C)[C@H]2O)[C@](C)(O)C[C@@H](C)C(=O)[C@H](C)[C@@H](O)[C@]1(C)O [ERYTHROMYCIN]
- MIC50 (Desulfovibrio sp. [3]): 0.5 µg/mL (≈ 0.681 µM)
- MIC90 (Desulfovibrio sp. [3]): 1.5 µg/mL (≈ 2.04 µM)
- MIC [4]: 0.5 µg/mL (≈ 0.681 µM)
- MIC [5]: 0.38 µg/mL (≈ 0.518 µM)
- MIC [6]: 0.38 µg/mL (≈ 0.518 µM)
- MIC (Desulfovibrio piger [7]): 0.016 µg/mL (≈ 0.0218 µM)

Compound: C[C@H]1COc2c(N3CCN(C)CC3)c(F)cc3c(=O)c(C(=O)O)cn1c23.C[C@H]1COc2c(N3CCN(C)CC3)c(F)cc3c(=O)c(C(=O)O)cn1c23.O [LEVOFLOXACIN]
- MIC50 (Desulfovibrio sp. [3]): 0.75 µg/mL
- MIC90 (Desulfovibrio sp. [3]): > 32 µg/mL
- MIC [4]: > 32 µg/mL
- MIC [5]: 0.25 µg/mL
- MIC [6]: 0.25 µg/mL
- MIC (Desulfovibrio piger [7]): 0.095 µg/mL

Compound: C[C@@H](O)[C@H]1C(=O)N2C(C(=O)O)=C(S[C@@H]3CN[C@H](C(=O)N(C)C)C3)[C@H](C)[C@H]12 [MEROPENEM]
- MIC50 (Desulfovibrio sp. [3]): 0.19 µg/mL (≈ 0.495 µM)
- MIC90 (Desulfovibrio sp. [3]): 4 µg/mL (≈ 10.4 µM)
- MIC [4]: 2 µg/mL (≈ 5.22 µM)
- MIC [5]: 0.064 µg/mL (≈ 0.167 µM)
- MIC [6]: 0.023 µg/mL (≈ 0.06 µM)
- MIC (Desulfovibrio piger [7]): 0.032 µg/mL (≈ 0.0834 µM)

Compound: Cc1ncc([N+](=O)[O-])n1CCO [METRONIDAZOLE]
- MIC50 (Desulfovibrio sp. [3]): 0.125 µg/mL (≈ 0.73 µM)
- MIC90 (Desulfovibrio sp. [3]): 0.25 µg/mL (≈ 1.46 µM)
- MIC [4]: 0.016 µg/mL (≈ 0.0935 µM)
- MIC [5]: 0.064 µg/mL (≈ 0.374 µM)
- MIC [6]: 0.016 µg/mL (≈ 0.0935 µM)
- MIC (Desulfovibrio piger [7]): 0.032 µg/mL (≈ 0.187 µM)

Compound: CN(C)c1ccc(O)c2c1C[C@H]1C[C@H]3[C@H](N(C)C)C(O)=C(C(N)=O)C(=O)[C@@]3(O)C(O)=C1C2=O [MINOCYCLINE]
- MIC50 (Desulfovibrio sp. [3]): 6 µg/mL (≈ 13.1 µM)
- MIC90 (Desulfovibrio sp. [3]): 24 µg/mL (≈ 52.5 µM)
- MIC [4]: 4 µg/mL (≈ 8.74 µM)
- MIC [5]: 2 µg/mL (≈ 4.37 µM)
- MIC [6]: 3 µg/mL (≈ 6.56 µM)
- MIC (Desulfovibrio piger [7]): 0.19 µg/mL (≈ 0.415 µM)

Compound: CCN1CCN(C(=O)N[C@@H](C(=O)N[C@@H]2C(=O)N3[C@@H]2SC(C)(C)[C@@H]3C(=O)O)c2ccccc2)C(=O)C1=O [PIPERACILLIN]
- MIC50 (Desulfovibrio sp. [3]): > 256 µg/mL
- MIC90 (Desulfovibrio sp. [3]): > 256 µg/mL
- MIC [4]: > 256 µg/mL
- MIC [5]: > 256 µg/mL
- MIC [6]: > 32 µg/mL
- MIC (Desulfovibrio piger [7]): > 256 µg/mL
- MIC50 (Desulfovibrio sp. [11]): > 256 µg/mL
- MIC90 (Desulfovibrio sp. [11]): > 256 µg/mL
- MIC [12]: > 256 µg/mL
- MIC [13]: > 16 µg/mL
- MIC [14]: 32 µg/mL
- MIC (Desulfovibrio piger [15]): > 256 µg/mL
